# Laboratory results: patent US20050124497A1, “Delta1-pyrrolines and their use as pest control agents” (priority 2002, published 2005)
# System: larvae of the mustard beetle (Phaedon cochleariae)
# Assay: Phaedon larvae test
# Assay type: in vivo
# Settings: 100 ppm active compound, cabbage leaves dipped, kill after 7 d
# Description: Phaedon Larvae Test [table] To produce a suitable preparation of active compound, 1 part by weight of active compound is mixed with the stated amounts of solvent and emulsifier, and the concentrate is diluted with emulsifier-containing water to the desired concentration. Cabbage leaves (Brassica oleracea) are treated by being dipped into the preparation of active compound of the desired concentration and are populated with larvae of the mustard beetle (Phaedon cochleariae) while the leaves are still moist.
row,SMILES,Efficacy in % after 7 d [%]
1,Fc1cccc(F)c1C1=NC(c2ccc(-c3nc4cc(C(F)(F)F)c(Cl)cc4o3)cc2)CC1 (stereo not shown) [drawing 41],100
2,Fc1cccc(F)c1C1=NC(c2ccc(-c3nc4cc(OC(F)(F)F)ccc4o3)cc2)CC1 (stereo not shown) [drawing 42],100
3,Fc1cccc(F)c1C1=NC(c2ccc(-c3nc4cc(-c5ccccc5)ccc4o3)cc2)CC1 (stereo not shown) [drawing 43],100
4,Fc1cc(-c2nc3cc(OC(F)(F)F)ccc3o2)ccc1C1CCC(c2c(F)cccc2F)=N1 (stereo not shown) [drawing 44],100
5,Fc1cc(-c2nc3cc(-c4ccccc4)ccc3o2)ccc1C1CCC(c2c(F)cccc2F)=N1 (stereo not shown) [drawing 45],100

# Same assay, conditions: 500 ppm active compound, cabbage leaves dipped, kill after 7 d
row,SMILES,Efficacy in % after 7 d [%]
1,CC(C)(C)c1ccc2oc(-c3ccc(C4CCC(c5c(F)cccc5F)=N4)cc3)nc2c1 (stereo not shown) [drawing 39],100
2,Fc1cccc(F)c1C1=NC(c2ccc(-c3nc4cc(SC(F)(F)F)ccc4o3)cc2)CC1 (stereo not shown) [drawing 40],100

# System: greenhouse red spider mite (Tetranychus urticae)
# Assay: Tetranychus test (OP-resistant/dip treatment)
# Assay type: in vivo
# Settings: 168 h, 100 ppm active compound, bean plants dipped, all stages, after 7 d, read-out: Efficacy in % after 7 d
# Description: Tetranychus Test (OP-Resistant/Dip Treatment)
# (§1) To produce a suitable preparation of active compound, 1 part by weight of active compound is mixed with the stated amounts of solvent and emulsifier, and the concentrate is diluted with emulsifier-containing water to the desired concentration.
# Bean plants (Phaseolus vulgaris) which are heavily infested by all stages of the greenhouse red spider mite (Tetranychus urticae) are treated by being dipped into a preparation of active compound of the desired, concentration.
# After the desired period of time, the effect in % is determined. 100% means that all spider mites have been killed; 0% means that none of the spider mites have been killed.
row,SMILES,pest or weed control at 100 ppm [%]
1,Fc1cc(-c2nc3ccccc3o2)ccc1C1CCC(c2c(F)cccc2F)=N1 (stereo not shown),95
2,Fc1cccc(F)c1C1=NC(c2ccc(-c3nc4cc(C(F)(F)F)cc(Cl)c4o3)cc2)CC1 (stereo not shown),95
3,Fc1cccc(F)c1C1=NC(c2ccc(-c3nc4cc(C(F)(F)F)cc(C(F)(F)F)c4o3)cc2)CC1 (stereo not shown),100
4,Fc1cccc(F)c1C1=NC(c2ccc(-c3nc4cc(C(F)(F)F)c(Cl)cc4o3)cc2)CC1 (stereo not shown) [drawing 63],98
5,CN(C)S(=O)(=O)c1cc2oc(-c3ccc(C4CCC(c5c(F)cccc5F)=N4)cc3)nc2cc1Cl (stereo not shown) [drawing 64],90
6,Fc1cccc(F)c1C1=NC(c2ccc(-c3nc4ccccc4s3)cc2)CC1 (stereo not shown) [drawing 65],99
7,Fc1cc(-c2nc3cc(Cl)ccc3o2)ccc1C1CCC(c2c(F)cccc2F)=N1 (stereo not shown) [drawing 67],95
8,Fc1cc(-c2nc3cc(-c4ccccc4)ccc3o2)ccc1C1CCC(c2c(F)cccc2F)=N1 (stereo not shown) [drawing 68],99
9,Fc1cccc(F)c1C1=NC(c2ccc(-c3nc4cc(C(F)(F)F)ccc4s3)cc2)CC1 (stereo not shown) [drawing 69],90

# System: Heliothis armigera caterpillars
# Assay: Heliothis armigera test
# Assay type: in vivo
# Settings: 100 ppm active compound, soya bean shoots dipped, kill after 7 d
# Description: Solvent: 7 parts by weight of dimethylformamide
# Emulsifier: 2 parts by weight of alkylaryl polyglycol ether
# as §1
# Soya bean shoots (Glycine max) are treated by being dipped into the preparation of active compound of the desired concentration and are populated with Heliothis armigera caterpillars while the leaves are still moist.
# (§2) After the desired period of time, the kill in % is determined. 100% means that all caterpillars have been killed; 0% means that none of the caterpillars have been killed.
row,SMILES,Efficacy in % after 7 d [%]
1,Fc1cccc(F)c1C1=NC(c2ccc(-c3nc4cc(C(F)(F)F)c(Cl)cc4o3)cc2)CC1 (stereo not shown) [drawing 27],100
2,Fc1cccc(F)c1C1=NC(c2ccc(-c3nc4cc(OC(F)(F)F)ccc4o3)cc2)CC1 (stereo not shown) [drawing 28],100
3,Fc1cccc(F)c1C1=NC(c2ccc(-c3nc4cc(-c5ccccc5)ccc4o3)cc2)CC1 (stereo not shown) [drawing 29],100
4,Fc1cc(-c2nc3cc(OC(F)(F)F)ccc3o2)ccc1C1CCC(c2c(F)cccc2F)=N1 (stereo not shown) [drawing 30],100
5,Fc1cc(-c2nc3cc(Cl)ccc3o2)ccc1C1CCC(c2c(F)cccc2F)=N1 (stereo not shown) [drawing 31],100
6,Fc1cccc(F)c1C1=NC(c2ccc(-c3nc4cc(C(F)(F)F)ccc4s3)cc2)CC1 (stereo not shown) [drawing 32],100
7,Fc1cccc(F)c1C1=NC(c2ccc(-c3nc4cc(Br)ccc4o3)cc2)CC1 (stereo not shown) [drawing 33],100

# System: not listed separately
# Assay: log P by HPLC (reversed-phase C18), acidic range pH 2.3
# Assay type: physicochemical
# Settings: reversed-phase C18 HPLC column; pH 2.3, 0.1% aqueous phosphoric acid/acetonitrile, 43° C.
# Description: The log P values given in the Tables and Preparation Examples above are determined in accordance with EEC Directive 79/831 Annex V.A8 by HPLC (High Performance Liquid Chromatography) using a reversed-phase column (C 18). Temperature: 43° C.
# The determination in the acidic range is carried out at pH 2.3 using the mobile phases 0.1% aqueous phosphoric acid and acetonitrile; linear gradient from 10% acetonitrile to 90% acetonitrile. In the Tables, the values are marked a).
# Calibration is carried out using unbranched alkan-2-ones (of 3 to 16 carbon atoms) with known log P values (determination of the log P values by retention times using linear interpolation between two successive alkanones).
row,chromatographic logP,SMILES
1,5.11,"CC(C)(C)c1ccc2oc(-c3ccc(C4CCC(c5c(F)cccc5F)=N4)cc3)nc2c1 (stereo not shown) [Example 1, 5-tert-butyl-2-{4-[5-(2,6-difluorophenyl)-3,4-dihydro-2H-pyrrol-2-yl]phenyl}-1,3-benzoxazole]"
2,4.98,Fc1cccc(F)c1C1=NC(c2ccc(-c3nc4cc(SC(F)(F)F)ccc4o3)cc2)CC1 (stereo not shown) [Example 2]
3,2.06,"Fc1cccc(F)c1C1=NC(c2ccc(-c3nc4ncccc4o3)cc2)CC1 (stereo not shown) [Example 4, 2-{4-[5-(2,6-difluorophenyl)-3,4-dihydro-2H-pyrrol-2-yl]-phenyl}[1,3]oxazole[4,5-b]pyridine]"
4,3.53,"Fc1ccc2nc(-c3ccc(C4CCC(c5c(F)cccc5F)=N4)cc3)oc2c1 (stereo not shown) [Example 5, 2-{4-[5-(2,6-difluorophenyl)-3,4-dihydro-2H-pyrrol-2-yl]phenyl}-6-fluoro-1,3-benzoxazole]"
5,3.22,"CC(C)(C)c1ccc(O)c(NC(=O)c2ccc(C3CCC(c4c(F)cccc4F)=N3)cc2)c1 (stereo not shown) [II-1, N-(5-tert-btyl-2-hydroxyphenyl)-4-[5-(2,6-difluorohenyl)-3,4-dihydro-2H-pyrrol-2-yl]benzamide]"
6,1.16,"O=C(Nc1ncccc1O)c1ccc(C2CCC(c3c(F)cccc3F)=N2)cc1 (stereo not shown) [II-4, 4-[5-(2,6-difluorophenyl)-3,4-dihydro-2H-pyrrol-2-yl]-N-(3-hydroxy-2-pyridinyl)benzamide]"

row,SMILES,chromatographic logP
1,"Fc1cccc(F)c1C1=NC(c2ccc(-c3nc4ccccc4o3)cc2)CC1 (stereo not shown) [Example 3, 2-{4-[5-(2,6-difluorophenyl)-3,4-dihydro-2H-pyrrol-2-yl]phenyl}-1,3-benzoxazole]",3.22

# System: Meloidogyne incognita egg/larvae suspension
# Assay: Meloidogyne test
# Assay type: in vivo
# Settings: 20 ppm active compound, lettuce in sand, nematicidal action by gall formation
# Description: To produce a suitable preparation of active compound, 1 part by weight of active compound is mixed with the stated amounts of solvent and emulsifier, and the concentrate is diluted with water to the desired concentration.
# Containers are filled with sand, solution of active compound, Meloidogyne incognita egg/larvae suspension and lettuce seeds. The lettuce seeds germinate and the plants develop. On the roots, galls are formed.
# After the desired period of time, the nematicidal action is determined in % by gall formation. 100% means that no galls were found; 0% means that the number of galls on the treated plants corresponds to that of the untreated control.
row,SMILES,Efficacy in % after 7 d [%]
1,Cc1cc2oc(-c3ccc(C4CCC(c5c(F)cccc5F)=N4)cc3)nc2c(C)c1Cl (stereo not shown),98
2,CNS(=O)(=O)c1cc2oc(-c3ccc(C4CCC(c5c(F)cccc5F)=N4)cc3)nc2cc1Cl (stereo not shown),80
3,O=C(Nc1ncccc1O)c1ccc(C2CCC(c3c(F)cccc3F)=N2)cc1 (stereo not shown) [drawing 34],95
4,Fc1cccc(F)c1C1=NC(c2ccc(-c3nc4ccccc4s3)cc2)CC1 (stereo not shown) [drawing 35],80
5,Fc1cccc(F)c1C1=NC(c2ccc(-c3nc4cc(Br)ccc4o3)cc2)CC1 (stereo not shown) [drawing 38],80

# System: caterpillars of the armyworm (Spodoptera frugiperda)
# Assay: Spodoptera frugiperda test
# Assay type: in vivo
# Settings: 168 h, 100 ppm active compound, cabbage leaves dipped, kill after 7 d, read-out: Efficacy in % after 7 d
# Description: Spodoptera Frugiperda Test
# as §1
# Cabbage leaves (Brassica oleracea) are treated by being dipped into the preparation of active compound of the desired concentration and are populated with caterpillars of the armyworm (Spodoptera frugiperda) while the leaves are still moist.
# as §2
row,SMILES,pest or weed control at 100 ppm [%]
1,Fc1cccc(F)c1C1=NC(c2ccc(-c3nc4cc(Cl)ccc4o3)cc2)CC1 (stereo not shown),100
2,Cc1ccccc1C1=NC(c2ccc(-c3nc4ccccc4o3)cc2)CC1 (stereo not shown),100
3,Fc1cccc(F)c1C1=NC(c2ccc(-c3nc4cc(Cl)cc(Cl)c4o3)cc2)CC1 (stereo not shown),100
4,CN(C)S(=O)(=O)c1cc2oc(-c3ccc(C4CCC(c5c(F)cccc5F)=N4)cc3)nc2cc1Cl (stereo not shown) [drawing 58],100
5,Fc1cc(-c2nc3cc(Cl)ccc3o2)ccc1C1CCC(c2c(F)cccc2F)=N1 (stereo not shown) [drawing 59],100
6,Fc1cccc(F)c1C1=NC(c2ccc(-c3nc4cc(C(F)(F)F)ccc4s3)cc2)CC1 (stereo not shown) [drawing 60],100

# Same assay, conditions: 168 h, 500 ppm active compound, cabbage leaves dipped, kill after 7 d, read-out: Efficacy in % after 7 d
row,SMILES,pest or weed control at 500 ppm [%]
1,Fc1cccc(F)c1C1=NC(c2ccc(-c3nc4ncccc4o3)cc2)CC1 (stereo not shown) [drawing 49],100
2,CC(C)(C)c1ccc2oc(-c3ccc(C4CCC(c5c(F)cccc5F)=N4)cc3)nc2c1 (stereo not shown) [drawing 50],100
3,Fc1cccc(F)c1C1=NC(c2ccc(-c3nc4cc(SC(F)(F)F)ccc4o3)cc2)CC1 (stereo not shown) [drawing 52],100
4,Fc1ccc2nc(-c3ccc(C4CCC(c5c(F)cccc5F)=N4)cc3)oc2c1 (stereo not shown) [drawing 54],100
5,CC(C)(C)c1ccc(O)c(NC(=O)c2ccc(C3CCC(c4c(F)cccc4F)=N3)cc2)c1 (stereo not shown) [drawing 55],100

# Same assay, conditions: in Brassica oleracea, 168 h, read-out: Efficacy in % after 7 d
row,SMILES,pest or weed control at 500 ppm [%]
1,O=[N+]([O-])c1cc2oc(-c3ccc(C4CCC(c5c(F)cccc5F)=N4)cc3)nc2cc1Cl (stereo not shown),100
2,Fc1cccc(F)c1C1=NC(c2ccc(-c3nc4ccccc4o3)cc2)CC1 (stereo not shown) [drawing 48],100

# System: caterpillars of the armyworm (Spodoptera exigua)
# Assay: Spodoptera exigua test
# Assay type: in vivo
# Settings: 100 ppm active compound, cabbage leaves dipped, kill after 7 d
# Description: as §1
# Cabbage leaves (Brassica oleracea) are treated by being dipped into the preparation of active compound of the desired concentration and are populated with caterpillars of the armyworm (Spodoptera exigua) while the leaves are still moist.
# as §2
row,SMILES,Efficacy in % after 7 d [%]
1,Fc1cc(-c2nc3cc(-c4ccccc4)ccc3o2)ccc1C1CCC(c2c(F)cccc2F)=N1 (stereo not shown) [drawing 47],100
